One assay has as its target T1, human CCR2 (Homo sapiens, UniProt P41597).
T1 construct: expressed in transfected cells; host or cells: Ba/F3 cells (membranes)
As to the kind of experiment: CCR2 Membrane Binding Assay (SPA radio-ligand binding, 125I-rhMCP-1). The settings on record: membranes from Ba/F3 cells transfected with human CCR2; 0.03 nM 125I-rhMCP-1; 4 h room temperature. As for the experimental part: The radio-ligand binding assay was done using scintillation proximity assay (SPA) technology. Briefly, membranes (1 μg per assay point) from Ba/F3 cells transfected with human CCR2, and wheat germ agglutinin-coated SPA beads (80 μg per point; Amersham, Arlington Heights,Ill.), were pre-incubated for 30 min at room temperature in CCR2 buffer (50 mM HEPES (pH=7.4), 10 mM MgCl2, 10 mM NaCl, 1 mM CaCL2, 0.1% BSA,10 μg/ml Saponin). At this point pre-bound SPA bead, membrane complex was incubated at room temperature for 4 h with varying concentrations of punitive CCR2 antagonists (in 1% DMSO, final) and 0.03 nM ^125I-rhMCP-1 in CCR2 Buffer (S.A. 2200 Ci/mmol, PerkinElmer Life and Analytical Science, Boston, Mass.; NEX332). Binding competition was measured using a 1450 Microbeta Trilux counter(Wallac, Gaithersburg, Md.). Binding constants (IC50 and slope) were calculated using GraphPad Prism software(GraphPad Software, Inc., La Jolla Calif.).
T1 sequence (P41597 whole entry): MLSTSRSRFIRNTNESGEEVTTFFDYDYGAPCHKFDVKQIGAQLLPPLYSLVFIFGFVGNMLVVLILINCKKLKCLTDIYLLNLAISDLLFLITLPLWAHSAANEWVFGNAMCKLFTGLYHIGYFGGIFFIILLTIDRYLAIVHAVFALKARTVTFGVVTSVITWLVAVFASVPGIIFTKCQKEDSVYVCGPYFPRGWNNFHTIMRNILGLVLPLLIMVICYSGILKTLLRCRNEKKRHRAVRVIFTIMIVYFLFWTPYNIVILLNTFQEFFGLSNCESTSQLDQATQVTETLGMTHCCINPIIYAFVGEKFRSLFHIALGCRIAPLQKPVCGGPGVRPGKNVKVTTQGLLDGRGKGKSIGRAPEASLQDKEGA
`CC(C)c1cc2ccc3[nH]c(C(=O)NC4CCN(CCN5CCCCCC5)CC4)cc3c2o1` [Compound 2]: the IC50 was determined as 5.4 nM. This lies in the single-digit nanomolar range.

The compound `CC(C)COc1cccc2[nH]c(C(=O)NC3CCN(CCN4CCCCCC4)CC3)cc12` [Compound 10] registered an IC50 of 4 nM.

`O=C(NC1CCN(CCN2CCCCCC2)CC1)c1cc2c(OCc3ccccc3)cccc2[nH]1` [Compound 14] showed an IC50 of 12.5 nM.

The compound `CC(C)COc1cc2c(c3[nH]c(C(=O)NC4CCN(CCN5CCCCCC5)CC4)cc13)CCC2` [Compound 16] showed an IC50 of 40 nM.

Turning to `O=C(NC1CCN(CCN2CCCCCC2)CC1)c1cc2c(ccc3cc(-c4ccccc4)oc32)[nH]1` [Compound 17], the IC50 was 13 nM.

The assay is the same for the next values; noted with them: membranes from Ba/F3 cells transfected with human CCR2; 0.03 nM 125I-rhMCP-1; class symbols.
`CC(C)c1cc2ccc3[nH]c(C(=O)N[C@H]4[C@@H]5CN(CCN6CCCCCC6)C[C@@H]54)cc3c2o1` [Compound 3] registered a half-inhibitory concentration (IC50) of 51 to 200 nM.

The compound `O=C(NC1CCN(CCN2CCCCCC2)CC1)c1cc2c(ccc3ccccc32)[nH]1` [Compound 4] registered a concentration for half-maximal inhibition (IC50) of 51 to 200 nM.

The compound `Cc1cc2ccc3[nH]c(C(=O)NC4CCN(CCN5CCCCCC5)CC4)cc3c2o1` [Compound 5] had an IC50 of 51 to 200 nM.

The compound `O=C(NC1CCN(CCN2CCCCCC2)CC1)c1cc2c(cc(F)c3ccoc32)[nH]1` [Compound 6] had an IC50 of 201 to 900 nM.

In turn, `O=C(NC1CCN(CCN2CCCCCC2)CC1)c1cc2c3c(c(F)cc2[nH]1)CCO3` [Compound 7] had an IC50 of 201 to 900 nM.

The compound `Cc1c(C(=O)NC2CCN(CCN3CCCCCC3)CC2)[nH]c2ccc3ccccc3c12` [Compound 8] returned an IC50 of 201 to 900 nM.

Compound `O=C(NC1CCN(CCN2CCCCCC2)CC1)c1cc2c(cc(F)c3ccccc32)[nH]1` [Compound 9] gave an IC50 of 51 to 200 nM.

`COc1cc2[nH]c(C(=O)NC3CCN(CCN4CCCCCC4)CC3)cc2c2ccccc12` [Compound 11] registered an IC50 of 201 to 900 nM.

`COc1cccc2[nH]c(C(=O)NC3CCN(CCN4CCCCCC4)CC3)cc12` [Compound 12] registered a half-inhibitory concentration (IC50) of 201 to 900 nM.

With `O=C(NC1CCN(CCN2CCCCC2)CC1)c1cc2c(cc(F)c3ccoc32)[nH]1` [Compound 13], the 50% inhibitory concentration (IC50) lay within 201 to 900 nM.

`CC(C)c1cc2ccc3[nH]c(C(=O)NC4CC45CCN(CCN4CCCCCC4)CC5)cc3c2o1` (stereo not shown) [Compound 15] gave an IC50 of 51 to 200 nM.

For `O=C(NC1CCN(CCN2CCCCCC2)CC1)c1cc2c3ccccc3ccc2n1Cc1ccccc1` [Compound 18], the IC50 is 201 to 900 nM.

The compound `O=C(NC1[C@H]2CN(CCN3CCCCCC3)C[C@@H]12)c1cc2c(ccc3cc(-c4ccccc4)oc32)[nH]1` (stereo partly shown) [Compound 19] yielded an IC50 of 51 to 200 nM.

`CCOc1cc2[nH]c(C(=O)NC3CCN(CCN4CCCCCC4)CC3)cc2c2ccccc12` [Compound 20] gave an IC50 of 51 to 200 nM.

The IC50 is the concentration needed to halve the response being measured. The low end stands for greater potency, the high end for weaker potency.

Source of the values: patent US20140005174A1, “INDOLE DERIVATIVES USEFUL AS CCR2 ANTAGONISTS” (priority 2011, published 2014).
